“Also recorded” adds a separate entry of the source. Blank lines part the entries; values can stand above or below the compound they belong to.
What was measured:
Format in all cases: physicochemical
Hygroscopicity test = settings: Chinese Pharmacopoeia 2015, 9103
Excerpt: Measurement method: Measured according to Chinese Pharmacopoeia, 2015 edition, Volume IV, General Principles, 9103 Guiding Principles for Hygroscopicity Test on Drugs.

Tablet disintegration = settings: 40 mg tablet with adjuvants
Excerpt: (§1) The disintegration and dissolution was investigated under the following conditions.
(§2) Dissolution Method: Paddle method (Chinese Pharmacopoeia, 2015 edition, Volume IV, 0931 Dissolution and Release Measurement methods, Method II); medium: 0.2% SDS aqueous solution; and rotation speed: 50 r/min.

[1] = Compressibility experiment (tablet hardness vs tablet thickness); settings: for Maximum tablet hardness: as tablet thickness decreases (tableting force increases)
Excerpt: The change of tablet hardness with tablet thickness was investigated, and compressibility was compared.

[2] = Stability test (appearance, related substances, XRPD) under high humidity, 60° C. and light
Experimental: Experiment Method: The test product was placed under high humidity (25° C./RH 92.5% or 40° C./RH 75%) conditions or under 60° C. conditions for 10 days, and samples were taken on the 5th and 10th days, respectively; and placed under light (4500 LX±500 LX) conditions for 10 days, a sample was taken on the 10th day and tested for related substances and XRPD, and the same was compared with the sample of day 0.
Relevant substances: Measured according to Chinese Pharmacopoeia, 2015 edition, Volume II, Appendix V D High Performance Liquid Chromatography.
XRPD measurement: Measured according to Chinese Pharmacopoeia, 2015 edition, Volume IV, 0451 X-Ray Diffraction Method.
The test product was placed under 25° C./RH 92.5% or under 60° C. conditions for 10 days, and was sampled on the 5th and 10th days respectively; the test product was placed under light (4500 LX±500 LX) or 40° C./RH 75% conditions for 10 days, sampled on the 10th day and tested for related substances and XRPD, and compared with the sample of day 0.
Related substances: Measured according to Chinese Pharmacopoeia, 2015 edition, Volume II, Appendix V D High Performance Liquid Chromatography.
XRPD Measurement: Chinese Pharmacopoeia, 2015 edition, Volume IV, 0451 X-Ray Diffraction Method.

[3] = Tablet dissolution, paddle method; settings: 0.2% SDS aqueous solution, 50 r/min
Excerpt: as §1, §2

[4] = Particle size measurement (laser particle size analyzer); settings: water dispersant, Tween 80
Experimental: An appropriate amount of the test product was taken, 0.1 mL of a 1% Tween 80 solution was added to reduce the surface tension, and water was used as a dispersant to prepare a uniformly dispersed suspension. The same was placed in a sample dispersion device, the stirring speed was adjusted to 2000 rpm, ultrasonication was carried out for 2 min at an ultrasonic frequency of 7 KHz, and measurement was carried out.

Hygroscopicity results (Hygroscopicity test): Moisture absorbability | Moisture absorption weight gain (%) (Hygroscopicity test): 6.3% | Disintegration behaviour (observation) (Tablet disintegration): Absorbed water | Disintegration time (Tablet disintegration; listed as Amorphous form): >30 min | Hardness of tablet ([1]; Tablet thickness 1.8 mm, listed as amorphous form): 2.75 kg | Hardness of tablet ([1]; Tablet thickness 2.0 mm, listed as amorphous form): 0.59 kg | Hardness of tablet ([1]; Tablet thickness 2.4 mm, listed as amorphous form): 0.72 kg | Maximum tablet hardness ([1]; listed as amorphous form): about 2.75 kg | Appearance ([2]; 0 day): Off-white | Related substance (%) ([2]; 0 day): 0.14% | XRPD (solid form found) ([2]; 0 day): Amorphous | Appearance ([2]; 25° C./RH 92.5% Open, 5 day): Off-white | Related substance (%) ([2]; 25° C./RH 92.5% Open, 5 day): 0.14% | XRPD (solid form found) ([2]; 25° C./RH 92.5% Open, 5 day): Amorphous | Appearance ([2]; 25° C./RH 92.5% Open, 10 day): Off-white | Related substance (%) ([2]; 25° C./RH 92.5% Open, 10 day): 0.19% | XRPD (solid form found) ([2]; 25° C./RH 92.5% Open, 10 day): Amorphous | Appearance ([2]; 40° C./RH 75% Open, 10 day): Off-white | Related substance (%) ([2]; 40° C./RH 75% Open, 10 day): 0.19% | XRPD (solid form found) ([2]; 40° C./RH 75% Open, 10 day): Amorphous | Appearance ([2]; 60° C. Open, 5 day): Light yellow | Related substance (%) ([2]; 60° C. Open, 5 day): 0.67% | XRPD (solid form found) ([2]; 60° C. Open, 5 day): Amorphous | Appearance ([2]; 60° C. Open, 10 day): Light yellow | Related substance (%) ([2]; 60° C. Open, 10 day): 1.15% | XRPD (solid form found) ([2]; 60° C. Open, 10 day): Amorphous | Appearance ([2]; Light (4500 LX±500 LX), 10 day): Light yellow | Related substance (%) ([2]; Light (4500 LX±500 LX), 10 day): 10.54% | XRPD (solid form found) ([2]; Light (4500 LX±500 LX), 10 day): Amorphous | Related substance (%) ([2]; Light (4500 LX±500 LX), 10 day, listed as amorphous form): up to 10.54% | Cumulative dissolution (%) ([3]; 5 min, listed as Amorphous form): 1.0% | Cumulative dissolution (%) ([3]; 10 min, listed as Amorphous form): 2.7% | Cumulative dissolution (%) ([3]; 15 min, listed as Amorphous form): 4.6% | Cumulative dissolution (%) ([3]; 30 min, listed as Amorphous form): 9.2% | Cumulative dissolution (%) ([3]; 45 min, listed as Amorphous form): 13.2% | Cumulative dissolution (%) ([3]; 60 min, listed as Amorphous form): 18.5%
Compound: CCN1CCN(Cc2cnc(Nc3cc(-c4cc(F)c5nc(C)n(C(C)C)c5c4)c(F)cn3)nc2)CC1 [Compound of formula (I), 5-((4-ethylpiperazin-1-yl)methyl)-N-(5-fluoro-4-(4-fluoro-1-isopropyl-2-methyl-1H-benzo[d]imidazol-6-yl)pyridin-2-yl)pyrimidin-2-amine]
Behaviour during tabletting (observation) ([1]; during the process of tabletting, listed as amorphous form): prone to wall sticking; also recorded: prone to capping

Hygroscopicity results (Hygroscopicity test): No or almost no moisture | Moisture absorption weight gain (%) (Hygroscopicity test): 0.003% | Disintegration time (Tablet disintegration): 4 min | Hardness of tablet ([1]; Tablet thickness 0.9 mm, "/" means no tablet can be formed at that thickness): 2.97 kg | Hardness of tablet ([1]; Tablet thickness 1.3 mm, "/" means no tablet can be formed at that thickness): 3.50 kg | Hardness of tablet ([1]; Tablet thickness 1.8 mm): 5.40 kg | Hardness of tablet ([1]; Tablet thickness 2.0 mm): 1.76 kg | Hardness of tablet ([1]; Tablet thickness 2.4 mm): 0 kg | Maximum tablet hardness [1]: about 5.4 kg | Particle size distribution, 10% of the sample [4]: ≤ 2.501 μm | Particle size distribution, 50% of the sample [4]: ≤ 10.432 μm | Particle size distribution, 90% of the sample [4]: ≤ 59.852 μm | Appearance ([2]; 0 day): Off-white | Related substance (%) ([2]; 0 day): 0.11% | XRPD (solid form found) ([2]; 0 day): Crystal form A | Appearance ([2]; 25° C./RH 92.5% Open, 5 day): Off-white | Related substance (%) ([2]; 25° C./RH 92.5% Open, 5 day): 0.09% | XRPD (solid form found) ([2]; 25° C./RH 92.5% Open, 5 day): Crystal form A | Appearance ([2]; 25° C./RH 92.5% Open, 10 day): Off-white | Related substance (%) ([2]; 25° C./RH 92.5% Open, 10 day): 0.09% | XRPD (solid form found) ([2]; 25° C./RH 92.5% Open, 10 day): Crystal form A | Appearance ([2]; 40° C./RH 75% Closed, 5 day): Off-white | Related substance (%) ([2]; 40° C./RH 75% Closed, 5 day): 0.10% | XRPD (solid form found) ([2]; 40° C./RH 75% Closed, 5 day): Crystal form A | Appearance ([2]; 40° C./RH 75% Closed, 10 day): Off-white | Related substance (%) ([2]; 40° C./RH 75% Closed, 10 day): 0.20% | XRPD (solid form found) ([2]; 40° C./RH 75% Closed, 10 day): Crystal form A | Appearance ([2]; 40° C./RH 75% Open, 5 day): Off-white | Related substance (%) ([2]; 40° C./RH 75% Open, 5 day): 0.10% | XRPD (solid form found) ([2]; 40° C./RH 75% Open, 5 day): Crystal form A | Appearance ([2]; 40° C./RH 75% Open, 10 day): Off-white | Related substance (%) ([2]; 40° C./RH 75% Open, 10 day): 0.20% | XRPD (solid form found) ([2]; 40° C./RH 75% Open, 10 day): Crystal form A | Appearance ([2]; 60° C. Closed, 5 day): Off-white | Related substance (%) ([2]; 60° C. Closed, 5 day): 0.09% | XRPD (solid form found) ([2]; 60° C. Closed, 5 day): Crystal form A | Appearance ([2]; 60° C. Closed, 10 day): Off-white | Related substance (%) ([2]; 60° C. Closed, 10 day): 0.11% | XRPD (solid form found) ([2]; 60° C. Closed, 10 day): Crystal form A | Appearance ([2]; 60° C. Open, 5 day): Off-white | Related substance (%) ([2]; 60° C. Open, 5 day): 0.11% | XRPD (solid form found) ([2]; 60° C. Open, 5 day): Crystal form A | Appearance ([2]; 60° C. Open, 10 day): Off-white | Related substance (%) ([2]; 60° C. Open, 10 day): 0.14% | XRPD (solid form found) ([2]; 60° C. Open, 10 day): Crystal form A | Change of properties (appearance, related substances, XRPD) ([2]; 60° C. or light conditions, 10 days): no obvious change | Appearance ([2]; Light (4500 LX±500 LX), 10 day): Off-white | Related substance (%) ([2]; Light (4500 LX±500 LX), 10 day): 0.09% | XRPD (solid form found) ([2]; Light (4500 LX±500 LX), 10 day): Crystal form A | Time to complete dissolution [3]: ≤ 60 min | Cumulative dissolution (%) ([3]; 5 min): 69.2% | Cumulative dissolution (%) ([3]; 10 min): 90.7% | Cumulative dissolution (%) ([3]; 15 min): 93.8% | Cumulative dissolution (%) ([3]; 30 min): 96.6% | Cumulative dissolution (%) ([3]; 45 min): 97.5% | Cumulative dissolution (%) ([3]; 60 min): 97.9%
Compound: CCN1CCN(Cc2cnc(Nc3cc(-c4cc(F)c5nc(C)n(C(C)C)c5c4)c(F)cn3)nc2)CC1 [Crystal form A of the compound of formula (I)] [5-((4-ethylpiperazin-1-yl)methyl)-N-(5-fluoro-4-(4-fluoro-1-isopropyl-2-methyl-1H-benzo[d]imidazol-6-yl)pyridin-2-yl)pyrimidin-2-amine]

From patent US11299474B2, “Crystal form targeting CDK4/6 kinase inhibitor” (XUANZHU BIOPHARMACEUTICAL CO., LTD., priority 2018, dated 2022)
